In ChEMBL document CHEMBL5331073, “Discovery of novel 7,7-dimethyl-6,7-dihydro-5H-pyrrolo[3,4-d]pyrimidines as ATR inhibitors based on structure-based drug design” (Eur J Med Chem, 2023):

Key:
[1] = target: Serine/threonine-protein kinase ATR (Homo sapiens, UniProt Q13535); assay: Inhibition of ATR (unknown origin) using peptide as substrate preincubated for 10 mins followed by substrate addition by microplate reader analysis
in vitro [2] = conditions: rat, liver microsomes
in vitro [3] = conditions: rat, liver microsomes; remark: listed apart in the source
LoVo [4] = assay: Antiproliferative activity against ATM-deficient human LoVo cells assessed as reduction in cell proliferation incubated for 3 days by MTT assay; assay type: functional, cell-based; conditions: 72 h
HT-29 = assay: Antiproliferative activity against ATM-proficient human HT-29 cells assessed as reduction in cell proliferation incubated for 3 days by MTT assay; assay type: functional, cell-based; conditions: HT-29, 72 h
in vitro [5] = conditions: human, liver microsomes
in vitro [6] = conditions: human, liver microsomes; remark: listed apart in the source
in vitro [7] = conditions: rat, liver microsomes; remark: listed apart in the source
in vitro [8] = conditions: human, liver microsomes; remark: listed apart in the source
LoVo [9] = assay: Antiproliferative activity against ATM-deficient human LoVo cells assessed as reduction in cell proliferation at 0.2 uM incubated for 3 days by MTT assay; assay type: functional; set-up: scale not given: the % may be the effect or the level left; conditions: time 3 day
[10] = MRT (0 to infinity) in Sprague-Dawley rat at 1 mg/kg, iv and measured upto 24 hrs by LC-MS analysis; assay type: ADME, organism-based; conditions: in vivo
[11] = Half life in Sprague-Dawley rat at 1 mg/kg, iv and measured upto 24 hrs by LC-MS analysis; assay type: ADME, organism-based; conditions: in vivo
[12] = Half life in Sprague-Dawley rat at 5 mg/kg, po and measured upto 24 hrs by LC-MS analysis; assay type: ADME, organism-based; conditions: in vivo
[13] = Volume of distribution at steady state in Sprague-Dawley rat at 1 mg/kg, iv and measured upto 24 hrs by LC-MS analysis; assay type: ADME, organism-based; conditions: in vivo, read-out: Vdss
[14] = AUC (0 to infinity) in Sprague-Dawley rat at 5 mg/kg, po and measured upto 24 hrs by LC-MS analysis; assay type: ADME, organism-based; set-up: time < 24 hrs, dose 5 mg/kg, route po; conditions: in vivo
[15] = AUC(0 to infinity) in Sprague-Dawley rat at 1 mg/kg, iv and measured upto 24 hrs by LC-MS analysis; assay type: ADME, organism-based; set-up: time < 24 hrs, dose 1 mg/kg, route iv; conditions: in vivo
[16] = Oral bioavailability in Sprague-Dawley rat at 5 mg/kg and measured upto 24 hrs by LC-MS analysis; assay type: ADME, organism-based; conditions: in vivo
[17] = MRT(t) in Sprague-Dawley rat at 1 mg/kg, iv and measured upto 24 hrs by LC-MS analysis; assay type: ADME, organism-based; conditions: in vivo
[18] = MRT (0 to infinity) in Sprague-Dawley rat at 5 mg/kg, po and measured upto 24 hrs by LC-MS analysis; assay type: ADME, organism-based; conditions: in vivo
[19] = Tmax in Sprague-Dawley rat at 5 mg/kg, po and measured upto 24 hrs by LC-MS analysis; assay type: ADME, organism-based; conditions: in vivo
[20] = MRT(t) in Sprague-Dawley rat at 5 mg/kg, po and measured upto 24 hrs by LC-MS analysis; assay type: ADME, organism-based; conditions: in vivo
[21] = Clearance in Sprague-Dawley rat at 1 mg/kg, iv and measured upto 24 hrs by LC-MS analysis; assay type: ADME, organism-based; conditions: in vivo
[22] = Cmax in Sprague-Dawley rat at 5 mg/kg, po and measured upto 24 hrs by LC-MS analysis; assay type: ADME, organism-based; set-up: time < 24 hrs, dose 5 mg/kg, route po; conditions: in vivo
[23] = AUCt in Sprague-Dawley rat at 5 mg/kg, po and measured upto 24 hrs by LC-MS analysis; assay type: ADME, organism-based; set-up: time < 24 hrs, dose 5 mg/kg, route po; conditions: in vivo
[24] = AUCt in Sprague-Dawley rat at 1 mg/kg, iv and measured upto 24 hrs by LC-MS analysis; assay type: ADME, organism-based; set-up: dose 1 mg/kg, time < 24 hrs, route iv; conditions: in vivo

Chain of Serine/threonine-protein kinase ATR (Q13535 whole entry): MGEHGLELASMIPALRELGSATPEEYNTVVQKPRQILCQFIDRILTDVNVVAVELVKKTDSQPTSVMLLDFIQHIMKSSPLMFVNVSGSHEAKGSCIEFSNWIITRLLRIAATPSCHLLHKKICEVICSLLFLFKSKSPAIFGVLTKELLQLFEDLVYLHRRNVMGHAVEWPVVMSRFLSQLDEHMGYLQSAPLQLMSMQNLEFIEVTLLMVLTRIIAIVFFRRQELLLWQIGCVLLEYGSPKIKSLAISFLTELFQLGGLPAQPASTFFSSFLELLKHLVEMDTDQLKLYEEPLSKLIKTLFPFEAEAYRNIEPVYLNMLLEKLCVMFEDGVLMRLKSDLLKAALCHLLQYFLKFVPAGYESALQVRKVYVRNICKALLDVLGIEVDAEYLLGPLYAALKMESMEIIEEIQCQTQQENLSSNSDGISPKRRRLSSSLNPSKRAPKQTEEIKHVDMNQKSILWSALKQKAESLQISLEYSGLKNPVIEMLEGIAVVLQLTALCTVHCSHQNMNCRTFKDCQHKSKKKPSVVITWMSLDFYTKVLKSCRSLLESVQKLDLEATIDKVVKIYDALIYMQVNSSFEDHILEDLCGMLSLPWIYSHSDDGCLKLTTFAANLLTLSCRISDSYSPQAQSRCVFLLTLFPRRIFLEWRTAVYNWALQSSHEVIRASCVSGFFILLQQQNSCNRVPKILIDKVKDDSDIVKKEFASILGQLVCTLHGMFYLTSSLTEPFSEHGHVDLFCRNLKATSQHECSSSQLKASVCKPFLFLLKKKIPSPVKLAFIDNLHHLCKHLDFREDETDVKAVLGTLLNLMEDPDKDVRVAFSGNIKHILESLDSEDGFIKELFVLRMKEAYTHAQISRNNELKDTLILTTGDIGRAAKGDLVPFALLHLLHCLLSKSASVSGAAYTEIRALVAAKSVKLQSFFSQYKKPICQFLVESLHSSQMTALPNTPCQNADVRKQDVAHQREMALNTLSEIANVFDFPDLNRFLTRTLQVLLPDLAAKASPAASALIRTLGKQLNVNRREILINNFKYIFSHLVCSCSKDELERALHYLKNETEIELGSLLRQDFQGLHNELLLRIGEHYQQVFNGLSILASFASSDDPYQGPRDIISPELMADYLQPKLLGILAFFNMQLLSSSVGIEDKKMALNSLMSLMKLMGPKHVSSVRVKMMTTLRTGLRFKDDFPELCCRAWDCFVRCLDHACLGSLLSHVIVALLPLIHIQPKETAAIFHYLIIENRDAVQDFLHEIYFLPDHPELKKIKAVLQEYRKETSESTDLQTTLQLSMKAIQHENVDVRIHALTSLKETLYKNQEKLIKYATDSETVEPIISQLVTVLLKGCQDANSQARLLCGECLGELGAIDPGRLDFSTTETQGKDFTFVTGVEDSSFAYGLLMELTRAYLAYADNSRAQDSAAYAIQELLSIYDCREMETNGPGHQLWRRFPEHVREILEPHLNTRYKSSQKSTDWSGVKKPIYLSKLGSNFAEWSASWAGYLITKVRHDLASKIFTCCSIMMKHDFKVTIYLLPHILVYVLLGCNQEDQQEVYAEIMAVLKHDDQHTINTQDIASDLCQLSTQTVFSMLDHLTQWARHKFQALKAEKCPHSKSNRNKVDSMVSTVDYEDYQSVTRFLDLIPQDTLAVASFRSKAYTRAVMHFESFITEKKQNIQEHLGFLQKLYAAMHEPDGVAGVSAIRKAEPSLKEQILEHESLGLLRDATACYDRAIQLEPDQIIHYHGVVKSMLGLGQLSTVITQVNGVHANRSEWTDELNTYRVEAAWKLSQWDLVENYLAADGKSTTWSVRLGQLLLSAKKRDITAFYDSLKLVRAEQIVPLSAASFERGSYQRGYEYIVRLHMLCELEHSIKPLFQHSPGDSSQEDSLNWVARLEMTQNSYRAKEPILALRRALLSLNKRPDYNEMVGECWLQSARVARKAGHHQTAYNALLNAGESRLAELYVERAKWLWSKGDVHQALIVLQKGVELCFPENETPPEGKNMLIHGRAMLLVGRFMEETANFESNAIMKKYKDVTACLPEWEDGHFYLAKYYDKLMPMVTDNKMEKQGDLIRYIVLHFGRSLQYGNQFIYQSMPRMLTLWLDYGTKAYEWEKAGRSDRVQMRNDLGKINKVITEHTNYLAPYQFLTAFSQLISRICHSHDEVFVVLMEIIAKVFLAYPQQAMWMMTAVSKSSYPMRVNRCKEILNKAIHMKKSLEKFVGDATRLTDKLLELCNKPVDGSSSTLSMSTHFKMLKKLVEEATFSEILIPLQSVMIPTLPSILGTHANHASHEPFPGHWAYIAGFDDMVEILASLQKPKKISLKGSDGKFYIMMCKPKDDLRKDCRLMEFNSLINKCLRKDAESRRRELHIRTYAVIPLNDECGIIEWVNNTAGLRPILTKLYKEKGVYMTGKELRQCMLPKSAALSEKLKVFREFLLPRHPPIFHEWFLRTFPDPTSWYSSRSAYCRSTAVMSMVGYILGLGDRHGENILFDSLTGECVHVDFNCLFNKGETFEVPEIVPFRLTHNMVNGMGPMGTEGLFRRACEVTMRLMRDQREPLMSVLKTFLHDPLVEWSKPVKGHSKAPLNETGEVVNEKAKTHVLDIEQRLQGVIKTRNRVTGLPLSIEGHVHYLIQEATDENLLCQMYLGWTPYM

C[C@@H]1COCCN1c1nc(-c2cccc3[nH]ccc23)nc2c1CCN(C(=O)CN(C)C)C2(C)C
IC50 [1]: 32 nM

COC(=O)N1CCc2c(N3CCOC[C@H]3C)nc(-c3cccc4[nH]ccc34)nc2C1(C)C
IC50 [1]: 18 nM

CC(=O)N1CCc2c(N3CCOC[C@H]3C)nc(-c3cccc4[nH]ccc34)nc2C12CCC2
IC50 [1]: 35 nM

C[C@@H]1COCCN1c1nc(-c2cccc3[nH]ccc23)nc2c1CCN(C(=O)CN1CCN(C)CC1)C2(C)C
IC50 [1]: 52 nM

C[C@@H]1COCCN1c1nc(-c2cccc3[nH]ccc23)nc2c1CCN(C(=O)C1CC1)C21CCC1
IC50 [1]: 28 nM

CCC(=O)N1CCc2c(N3CCOC[C@H]3C)nc(-c3cccc4[nH]ccc34)nc2C1(C)C
half-life at 1 h, 1 µM (in vitro [2]): 14 min | IC50 [1]: 9 nM | CLint scaled at 1 h, 1 µM (in vitro [3]): 178 mL/min/kg | IC50 (LoVo [4]): 779 nM | IC50 (HT-29): 2470 nM | CLint scaled at 1 h, 1 µM (in vitro [5]): 195 mL/min/kg | half-life at 1 h, 1 µM (in vitro [6]): 6.7 min | microsomal CLint at 1 h, 1 µM (in vitro [7]): 98.8 µL/min/mg | microsomal CLint at 1 h, 1 µM (in vitro [8]): 207 µL/min/mg

C[C@@H]1COCCN1c1nc(-c2cccc3[nH]ccc23)nc2c1CN(C(=O)C1CC1)C2(C)C
IC50 [1]: 8 nM | Activity (LoVo [9]): <45%

COc1ccc(C(=O)N2Cc3c(N4CCOC[C@H]4C)nc(-c4cccc5[nH]ccc45)nc3C2(C)C)cc1
half-life at 1 h, 1 µM (in vitro [2]): 18.1 min | IC50 [1]: 3 nM | CLint scaled at 1 h, 1 µM (in vitro [3]): 138 mL/min/kg | IC50 (LoVo [4]): 128 nM | IC50 (HT-29): 387 nM | MRT inf [10]: 198 min | CLint scaled at 1 h, 1 µM (in vitro [5]): 139 mL/min/kg | half-life [11]: 181 min | half-life [12]: 600 min | Vd [13]: 2.23 L/kg | half-life at 1 h, 1 µM (in vitro [6]): 9.46 min | AUC(0-inf) [14]: 729 ng·h/mL | microsomal CLint at 1 h, 1 µM (in vitro [7]): 76.6 µL/min/mg | AUC(0-inf) [15]: 1470 ng·h/mL | bioavailability [16]: 6.3% | MRT last at 24 h [17]: 179 min | microsomal CLint at 1 h, 1 µM (in vitro [8]): 147 µL/min/mg | MRT inf [18]: 678 min | Tmax [19]: 60 min | MRT last at 24 h [20]: 425 min | clearance [21]: 11.3 mL/min/kg | Cmax [22]: 83.1 ng/mL | AUC(0-t) at 24 h [23]: 452 ng·h/mL | AUC(0-t) at 24 h [24]: 1440 ng·h/mL

C[C@@H]1COCCN1c1nc(-c2cccc3[nH]ccc23)nc2c1CCN(C(=O)c1cccc(F)c1)C2(C)C
half-life at 1 h, 1 µM (in vitro [2]): 23.4 min | IC50 [1]: 14 nM | CLint scaled at 1 h, 1 µM (in vitro [3]): 107 mL/min/kg | IC50 (LoVo [4]): 964 nM | IC50 (HT-29): 2580 nM | CLint scaled at 1 h, 1 µM (in vitro [5]): 169 mL/min/kg | half-life at 1 h, 1 µM (in vitro [6]): 7.76 min | microsomal CLint at 1 h, 1 µM (in vitro [7]): 59.6 µL/min/mg | microsomal CLint at 1 h, 1 µM (in vitro [8]): 179 µL/min/mg

C[C@@H]1COCCN1c1nc(-c2cccc3[nH]ccc23)nc2c1CN(C(=O)C1CCC1)C2(C)C
IC50 [1]: 7 nM | Activity (LoVo [9]): <45%

CCC(=O)N1CCc2nc(-c3cccc4[nH]ccc34)nc(N3CCOC[C@H]3C)c2C1
IC50 [1]: > 1100 nM

CC(C)C(=O)N1CCc2nc(-c3cccc4[nH]ccc34)nc(N3CCOC[C@H]3C)c2C1
IC50 [1]: > 100 nM

COc1cccc(C(=O)N2CCc3c(N4CCOC[C@H]4C)nc(-c4cccc5[nH]ccc45)nc3C2(C)C)c1
IC50 [1]: 5 nM

CC(C)C(=O)N1CCc2c(nc(-c3cccc4[nH]ccc34)nc2N2CCOC[C@H]2C)C1
IC50 [1]: 15 nM

C[C@@H]1COCCN1c1nc(-c2cccc3[nH]ccc23)nc2c1CCN(C(=O)c1ccccc1)C2(C)C
half-life at 1 h, 1 µM (in vitro [2]): 38.2 min | IC50 [1]: 9 nM | CLint scaled at 1 h, 1 µM (in vitro [3]): 65.5 mL/min/kg | IC50 (LoVo [4]): 574 nM | IC50 (HT-29): 1640 nM | CLint scaled at 1 h, 1 µM (in vitro [5]): 53.7 mL/min/kg | half-life at 1 h, 1 µM (in vitro [6]): 24.5 min | microsomal CLint at 1 h, 1 µM (in vitro [7]): 36.4 µL/min/mg | microsomal CLint at 1 h, 1 µM (in vitro [8]): 56.8 µL/min/mg

C[C@@H]1COCCN1c1nc(-c2cccc3[nH]ccc23)nc2c1CCN(C(=O)c1cccc(C(F)(F)F)c1)C2(C)C
IC50 [1]: 72 nM

CC(=O)N1Cc2c(N3CCOC[C@H]3C)nc(-c3cccc4[nH]ccc34)nc2C1(C)C
IC50 [1]: 2 nM | Activity (LoVo [9]): <45%

C[C@@H]1COCCN1c1nc(-c2cccc3[nH]ccc23)nc2c1CCN(C(=O)C1CC1)C2
IC50 [1]: 14 nM

C[C@@H]1COCCN1c1nc(-c2cccc3[nH]ccc23)nc2c1CN(C(=O)c1ccc(OC(F)F)cc1)C2(C)C
IC50 [1]: 5 nM | Activity (LoVo [9]): <45%

CC(C)C(=O)N1CCc2c(N3CCOC[C@H]3C)nc(-c3cccc4[nH]ccc34)nc2C12CCC2
IC50 [1]: 29 nM

C[C@@H]1COCCN1c1nc(-c2cccc3[nH]ccc23)nc2c1CCN(C(=O)c1cccc(Cl)c1)C2(C)C
IC50 [1]: 43 nM

CC(=O)N1CCc2c(nc(-c3cccc4[nH]ccc34)nc2N2CCOC[C@H]2C)C1
IC50 [1]: 29 nM

C=CC(=O)N1CCc2c(N3CCOC[C@H]3C)nc(-c3cccc4[nH]ccc34)nc2C1(C)C
IC50 [1]: 6 nM

C[C@@H]1COCCN1c1nc(-c2cccc3[nH]ccc23)nc2c1CN(C(=O)c1ccc3c(c1)OCCO3)C2(C)C
IC50 [1]: 4 nM | IC50 (LoVo [4]): 147 nM | IC50 (HT-29): 487 nM

C[C@@H]1COCCN1c1nc(-c2cccc3[nH]ccc23)nc2c1CCN(C(=O)C1CC1)C2(C)C
IC50 [1]: 8 nM
